pIC50: −log10 of the molar value. Like-named read-outs stand apart in the source and are kept apart here.
What was measured:
[1] = target: T1, TRPM4 (Homo sapiens, UniProt Q8TD43); experiment: Agonist-induced Ca2+ changes in HEK293 cells transfected with TRPM4; assay type: cell-based
T1 construct: expressed in transfected cells; host or cells: HEK293
Description: (§1) To examine selectivity of a subset of these TRPM7 inhibitors, experiments were performed to determine whether TRPM7 antagonists cross-react with other ionic channels and receptors. […] From a therapeutic perspective, knowledge of cross-reactivity of candidate drugs could shed light on other ischemic mechanisms and raise awareness of potential side effects. M21 has no effect on voltage-sensitive Na+, and Ca2+ currents in cultured cortical neurons […] TRPM7-expressing HEK293 cells, but inhibits K+ currents by about 20% at membrane potentials of −10 mV. M21 had no effect on agonist-induced Ca2+ changes in HEK293 cells transfected with constructs for TRPM2, TRPM4, TRPM6, TRPV1, TRPC2 and TRPA1. M21 also has no effect on NMDA and AMPA receptor currents in cultured neurons. […] Similar experiments were performed with other TRPM7 inhibitors including M5 and M11.

[2] = target: T2, TRPM6 (Homo sapiens, UniProt Q9BX84); experiment: Agonist-induced Ca2+ changes in HEK293 cells transfected with TRPM6; assay type: cell-based
T2 construct: expressed in transfected cells; host or cells: HEK293
T2 sequence (Q9BX84 whole entry, species assumed): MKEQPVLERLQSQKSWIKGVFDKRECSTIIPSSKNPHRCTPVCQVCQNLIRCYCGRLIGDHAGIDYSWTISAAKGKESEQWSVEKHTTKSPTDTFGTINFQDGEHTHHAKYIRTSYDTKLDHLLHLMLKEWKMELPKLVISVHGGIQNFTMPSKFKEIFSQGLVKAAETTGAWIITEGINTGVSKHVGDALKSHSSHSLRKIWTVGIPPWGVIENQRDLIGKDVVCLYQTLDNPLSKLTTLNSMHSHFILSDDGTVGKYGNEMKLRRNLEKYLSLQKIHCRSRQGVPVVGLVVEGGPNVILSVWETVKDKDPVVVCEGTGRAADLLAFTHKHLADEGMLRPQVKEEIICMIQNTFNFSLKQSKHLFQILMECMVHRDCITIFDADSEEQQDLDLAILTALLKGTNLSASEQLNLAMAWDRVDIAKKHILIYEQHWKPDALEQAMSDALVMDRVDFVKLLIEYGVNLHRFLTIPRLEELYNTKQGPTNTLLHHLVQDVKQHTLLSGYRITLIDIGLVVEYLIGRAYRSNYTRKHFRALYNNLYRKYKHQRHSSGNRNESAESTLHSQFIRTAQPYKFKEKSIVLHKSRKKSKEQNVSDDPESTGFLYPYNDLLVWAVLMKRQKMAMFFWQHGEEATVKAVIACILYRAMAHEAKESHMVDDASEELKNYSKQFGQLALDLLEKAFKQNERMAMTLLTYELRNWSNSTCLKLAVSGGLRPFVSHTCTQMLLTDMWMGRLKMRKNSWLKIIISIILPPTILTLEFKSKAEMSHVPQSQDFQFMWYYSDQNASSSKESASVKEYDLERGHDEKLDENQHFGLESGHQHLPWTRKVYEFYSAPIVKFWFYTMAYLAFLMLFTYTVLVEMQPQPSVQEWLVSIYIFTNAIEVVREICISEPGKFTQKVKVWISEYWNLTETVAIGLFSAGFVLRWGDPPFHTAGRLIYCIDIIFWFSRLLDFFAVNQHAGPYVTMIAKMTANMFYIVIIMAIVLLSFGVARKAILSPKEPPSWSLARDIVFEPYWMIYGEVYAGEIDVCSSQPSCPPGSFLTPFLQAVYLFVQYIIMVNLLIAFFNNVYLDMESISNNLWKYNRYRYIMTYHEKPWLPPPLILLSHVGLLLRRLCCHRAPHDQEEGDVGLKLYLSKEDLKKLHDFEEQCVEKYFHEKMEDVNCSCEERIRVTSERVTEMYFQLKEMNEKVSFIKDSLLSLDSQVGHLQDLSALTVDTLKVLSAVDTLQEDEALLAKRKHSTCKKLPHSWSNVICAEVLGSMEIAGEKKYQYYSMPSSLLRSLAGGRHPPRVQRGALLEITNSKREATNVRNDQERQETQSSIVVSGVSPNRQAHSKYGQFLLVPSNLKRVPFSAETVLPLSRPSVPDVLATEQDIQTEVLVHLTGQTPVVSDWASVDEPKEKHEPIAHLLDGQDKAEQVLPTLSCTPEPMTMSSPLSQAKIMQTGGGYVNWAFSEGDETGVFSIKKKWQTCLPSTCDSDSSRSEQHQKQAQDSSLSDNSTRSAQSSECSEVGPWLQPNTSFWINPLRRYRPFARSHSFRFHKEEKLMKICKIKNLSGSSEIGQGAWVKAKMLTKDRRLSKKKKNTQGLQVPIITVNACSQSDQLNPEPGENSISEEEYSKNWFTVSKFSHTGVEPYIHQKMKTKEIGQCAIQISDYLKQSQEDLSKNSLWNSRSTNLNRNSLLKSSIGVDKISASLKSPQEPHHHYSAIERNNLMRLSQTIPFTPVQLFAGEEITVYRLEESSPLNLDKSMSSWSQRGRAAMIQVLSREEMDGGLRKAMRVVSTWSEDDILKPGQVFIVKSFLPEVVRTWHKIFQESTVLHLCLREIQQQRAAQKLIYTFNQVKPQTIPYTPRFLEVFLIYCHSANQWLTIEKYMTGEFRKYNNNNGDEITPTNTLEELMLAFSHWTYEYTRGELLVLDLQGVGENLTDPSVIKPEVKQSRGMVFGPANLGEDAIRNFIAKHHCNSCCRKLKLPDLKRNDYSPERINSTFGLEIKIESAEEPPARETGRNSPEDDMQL
Description: as §1

[3] = target: T3, TRPV1 (Homo sapiens, UniProt Q8NER1); experiment: Agonist-induced Ca2+ changes in HEK293 cells transfected with TRPV1; assay type: cell-based
T3 construct: expressed in transfected cells; host or cells: HEK293
T3 sequence (Q8NER1 whole entry, species assumed): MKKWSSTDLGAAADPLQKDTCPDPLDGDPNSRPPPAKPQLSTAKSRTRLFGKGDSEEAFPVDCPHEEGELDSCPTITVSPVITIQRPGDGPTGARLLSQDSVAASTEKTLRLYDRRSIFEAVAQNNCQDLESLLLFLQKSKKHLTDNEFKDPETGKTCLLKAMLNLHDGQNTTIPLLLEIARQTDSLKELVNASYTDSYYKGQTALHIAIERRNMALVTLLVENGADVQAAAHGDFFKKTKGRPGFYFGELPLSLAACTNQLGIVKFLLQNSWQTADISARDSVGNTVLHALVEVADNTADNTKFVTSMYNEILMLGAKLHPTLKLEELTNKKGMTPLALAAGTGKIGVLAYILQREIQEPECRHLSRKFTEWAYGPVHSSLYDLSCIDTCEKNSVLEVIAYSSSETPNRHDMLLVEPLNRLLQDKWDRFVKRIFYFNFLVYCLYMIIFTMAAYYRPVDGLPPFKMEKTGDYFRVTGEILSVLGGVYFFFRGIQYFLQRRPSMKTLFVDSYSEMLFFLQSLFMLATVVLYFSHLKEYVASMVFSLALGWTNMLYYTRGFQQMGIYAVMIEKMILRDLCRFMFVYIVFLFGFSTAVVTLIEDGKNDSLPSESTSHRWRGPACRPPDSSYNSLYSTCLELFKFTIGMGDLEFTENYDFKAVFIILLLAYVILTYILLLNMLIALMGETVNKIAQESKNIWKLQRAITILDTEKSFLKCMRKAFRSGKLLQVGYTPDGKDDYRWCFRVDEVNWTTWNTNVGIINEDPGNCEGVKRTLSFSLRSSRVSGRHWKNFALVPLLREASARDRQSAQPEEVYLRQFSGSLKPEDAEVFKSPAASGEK
Description: as §1

[4] = target: T4, TRPA1 (Homo sapiens, UniProt O75762); experiment: Agonist-induced Ca2+ changes in HEK293 cells transfected with TRPA1; assay type: cell-based
T4 construct: expressed in transfected cells; host or cells: HEK293
Description: as §1

[5] = system: NMDA receptor; experiment: NMDA receptor currents in cultured neurons; assay type: cell-based
Description: as §1

[6] = system: raised intraocular pressure (IOP); experiment: Raised intraocular pressure model of acute glaucoma in rats; assay type: in vivo, rat; settings: intraocular injection, 80 mm Hg 1 hour, 7-14 days
Description: We next tested whether direct intraocular injection of M21 could reduce retinal damage evoked by raising the intraocular pressure (IOP) in rats (80 mm Hg 1 hour; Morrison J C. Elevated intraocular pressure and optic nerve injury models in the rat. J Glaucoma. 2005; 14:315-317). M21 was microinjected into the vitreous humor directly, to control for any blood-brain-barrier penetration issues. […] The compounds of this invention can be used for the treatment of retinal disorders. Preferably these compounds are delivered orally, as an injection (intravenous, intraocular), or administered topically. This model of glaucoma can be used to assess the different routes of administration for these compounds

[7] = system: DMS456 lung cancer; experiment: Cancer cell proliferation, DMS456; assay type: cell-based; settings: >20% inhibition at 48-96 hours, MTT, SRB, luminescence or BrDU
Description: (§2) To determine the breadth of efficacy in cancers, we examined the efficacy of a range of TRPM7 inhibitors for their ability to inhibit cell proliferation in cancer cell lines. Representative figures are included as examples.
(§3) Cells (Table 1) were grown to 70% confluency, trypsinized, counted, and seeded in 96-well flat-bottom plates at a final concentration of 2.5×10^3-5.0×10^3 cells/well in growth media containing 5% FBS (Day 0). Other well sizes and cell densities were used successfully as well. Cells were allowed to incubate in growth media for 24 hours to allow for maximum adhesion. Treatment with the test agent began on Day 1 and continued for 72 hours either with or without retreatment. At the 72 hour time point, viable cell numbers are quantified by the CellTiter-Glo® cell viability assay as described above, or using standard MTT, SRB or BrDU assays. Experiments were repeated at least twice with the same concentrations to determine growth inhibitory activity.
(§4) Data Collection—For the cell proliferation studies, data from each experiment was collected and expressed as % Cell Growth using the following calculation: % Cell Growth=(ftest/fvehicle)×100 Where ftest is the luminescent signal of the tested sample, and fvehicle is the luminescence of the vehicle in which the drug is dissolved (or appropriate measure for the other viability/proliferation measures). […]

[8] = system: H292 non small cell lung cancer; experiment: Cancer cell proliferation, H292; assay type: cell-based; settings: for pIC50: Homo sapiens
Description: as §2, §3
as §4, with “measures). Dose response graphs and IC50 values were generated using standard software using the following variable slope equation:” for “measures).”

[9] = system: RXF-393 renal; experiment: Cancer cell proliferation, RXF-393; assay type: cell-based, human; settings: for pIC50: Homo sapiens
Description: as §2, §3
as §4, with “measures). Dose response graphs and IC50 values were generated using standard software using the following variable slope equation:” for “measures).”

[10] = system: Y79 retinoblastoma cells; experiment: Y79 retinoblastoma cells seeded on cultured retinal explants (ex vivo); assay type: cell-based
Description: Retinal explants were surgically dissected and cultured by standard methods. One hundred thousand Y79 retinoblastoma cells were then seeded onto the retinas in culture and allowed to grow for 2 weeks on inserts in the presence or absence of 5 μM M6. Y79 cells were fluorescently labeled and intensity was counted (arbitrary fluorescence units). […] TRPM7 inhibitors may be useful in the reduction of tumor metastasis in addition to either reducing the proliferation or killing of cancer cells. FIG. 78 is a repetition of the experiment, observing the distribution of Y79 cells after 12 days of migration off the retina. The darker bars of each pair indicate fluorescence intensity of cells that have migrated off the retina.

[11] = in vivo; settings: mouse, mice, highest dose tested, read-out: maximum tolerated dose

T1 sequence (Q8TD43 whole entry, species assumed): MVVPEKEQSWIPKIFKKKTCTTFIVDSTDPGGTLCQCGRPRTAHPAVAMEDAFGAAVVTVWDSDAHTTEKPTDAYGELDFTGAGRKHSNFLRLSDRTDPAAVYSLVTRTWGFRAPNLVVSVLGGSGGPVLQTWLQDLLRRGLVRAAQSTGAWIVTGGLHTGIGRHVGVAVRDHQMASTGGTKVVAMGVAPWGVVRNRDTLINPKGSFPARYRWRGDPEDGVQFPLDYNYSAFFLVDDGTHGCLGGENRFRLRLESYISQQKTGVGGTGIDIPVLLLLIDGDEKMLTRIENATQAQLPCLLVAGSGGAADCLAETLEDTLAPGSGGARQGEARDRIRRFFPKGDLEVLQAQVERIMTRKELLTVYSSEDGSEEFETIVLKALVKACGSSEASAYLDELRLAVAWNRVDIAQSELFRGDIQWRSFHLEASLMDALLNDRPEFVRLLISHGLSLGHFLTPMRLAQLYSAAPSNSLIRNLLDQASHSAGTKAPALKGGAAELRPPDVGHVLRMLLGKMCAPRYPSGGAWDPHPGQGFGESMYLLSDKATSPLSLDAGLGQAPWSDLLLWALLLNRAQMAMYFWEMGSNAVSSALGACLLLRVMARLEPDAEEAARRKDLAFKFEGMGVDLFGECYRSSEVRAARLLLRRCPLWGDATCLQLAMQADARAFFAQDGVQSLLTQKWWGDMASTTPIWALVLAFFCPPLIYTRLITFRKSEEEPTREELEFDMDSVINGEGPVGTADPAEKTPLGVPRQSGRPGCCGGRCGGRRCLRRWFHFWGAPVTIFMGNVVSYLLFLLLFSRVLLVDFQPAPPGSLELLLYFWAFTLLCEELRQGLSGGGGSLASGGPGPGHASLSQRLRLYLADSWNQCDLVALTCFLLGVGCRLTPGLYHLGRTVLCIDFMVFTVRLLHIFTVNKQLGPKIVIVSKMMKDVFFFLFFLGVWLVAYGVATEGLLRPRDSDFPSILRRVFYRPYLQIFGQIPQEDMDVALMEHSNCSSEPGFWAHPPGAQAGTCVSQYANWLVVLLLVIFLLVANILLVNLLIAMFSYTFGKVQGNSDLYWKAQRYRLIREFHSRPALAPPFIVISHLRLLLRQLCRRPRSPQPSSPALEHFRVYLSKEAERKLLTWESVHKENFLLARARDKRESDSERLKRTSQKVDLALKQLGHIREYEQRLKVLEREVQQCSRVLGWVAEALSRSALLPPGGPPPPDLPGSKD

| Compound | effect on agonist-induced Ca2+ changes [1] | effect on agonist-induced Ca2+ changes [2] | effect on agonist-induced Ca2+ changes [3] | effect on agonist-induced Ca2+ changes [4] | effect on NMDA receptor currents [5] | retinal damage (histology) [6] | Demonstrated Reduction of Proliferation at or below 10 μM Inhibitor concentration [7] | Demonstrated Reduction of Proliferation at or below 10 μM Inhibitor concentration ([8]; H292, >20% inhibition at 48-96 hours, MTT, SRB, luminescence or BrDU) | pIC50 ([8]; NCI-H292, 72 h, H292, Exp 1, 72 hours, read-out: IC50) | pIC50 ([8]; NCI-H292, 72 h, H292, Exp 2, 72 hours, read-out: IC50) | pIC50 ([8]; NCI-H292, H292, mean of Exp 1 and Exp 2, read-out: Mean IC50) | pIC50 ([9]; RXF 393, 72 h, RXF393, Exp 1, 72 hours, read-out: IC50) | pIC50 ([9]; RXF 393, 72 h, RXF393, Exp 2, 72 hours, read-out: IC50) | pIC50 ([9]; RXF 393, RXF393, mean of Exp 1 and Exp 2, read-out: Mean IC50) | Demonstrated Reduction of Proliferation at or below 10 μM Inhibitor concentration ([9]; RXF-393, >20% inhibition at 48-96 hours, MTT, SRB, luminescence or BrDU) | fluorescence of cells migrated off the retinal explant ([10]; 1 μM, 12 days, FIG. 78) | amount of Y79 cells on cultured retinas (fluorescence) ([10]; 5 μM, 2 weeks) | ability of Y79 cells to migrate off of the retina ([10]; 5 μM, 2 weeks, FIG. 77 panel B) | MTD [11] [mg/kg] |
| --- | --- | --- | --- | --- | --- | --- | --- | --- | --- | --- | --- | --- | --- | --- | --- | --- | --- | --- | --- |
| Cc1c(Cc2ccc(Cl)c(Cl)c2)c(=O)oc2cc(O)ccc12 [Compound M21] | no effect | no effect | no effect | no effect | no effect | significant reduction in retinal damage |  |  |  |  |  |  |  |  |  |  |  |  |  |
| COc1cc2c(cc1OC)C(c1sc3ccccc3c1Cl)=NCC2 [Compound M6] |  |  |  |  |  |  | DMS456 lung cancer | H292 non small cell lung cancer | 4.73 | 4.80 | 4.76 | 5.28 | 5.09 | 5.17 | RXF-393 renal | significantly lower Y79 fluorescence off of the retinal explant | reduce the amount of Y79 cells | significantly reduced the ability of Y79 cells to migrate off of the retina | ≥ 20 |
